Several values for one entry are separate records, joined by “and”; a condition that tells them apart may be missing. Equal values may be shown once. Entries after “also recorded” stand apart in the source; their conditions may differ. Read-outs that look alike come from different tables or passages of the source.
Experiments:
GGTase-I = molecular target: T1, GGTase-I (Rattus norvegicus, UniProt P53610+Q04631); assay: In vitro GGTase-I enzyme assay (IC50, kinetics); assay type: biochemical; conditions: for IC50: read-out: In vitro (enzyme assay) IC50, GGTase I
T1 construct: purchased JENA BIOSCIENCE
Method in brief: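 Rat GGTase-I (50 nM) with 0.5 μM [3H]-GGPP and 2 μM MBP-RhoA in Tris-HCl pH 7.5, MgCl2, ZnCl2, DTT, 2.5% DMSO, 10 min at 30 °C; radiolabel incorporation by TCA filter binding and scintillation. Kinetics: 5 min reactions varying GGPP or RhoA at fixed other components.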

K562 cells = assay: Cell cycle profile by flow cytometry, K562; assay type: cell-based, human; conditions: 48 hours, FIG. 24A
Method: K562 cells were treated with indicated concentrations (mM) of P3-E5 (ranging from […]) or GGTI-298 (ranging from […]) for 48 hours. Cell cycle profiles were monitored by flow cytometry. Percentages of cells in each phase of the cell cycle are indicated by different colors. Red: G0/G1 phase. Black: S phase. Gray: G2/M phase.

BT474 = BT474 cell growth inhibition; assay type: cell-based, human; conditions: Homo sapiens, BT-474, 72 h; 3 days, CCK-8, vs DMSO; read-out: IC50, BT474 (Breast)
Method: (§1) In FIG. 9-24 in vitro IC50 values for the GGTase I activity are reported. In Tables 7-15 in cell GI50 values for the growth inhibition of a variety of cancer cell lines (e.g., Jurkat, K562, MDA-MB-231, BT474, MCF7, MiaPaCa2, Aspc-1, Panc-1, Capan-2, CFpac-1, and MCF10a) are reported.
(§2) Cell viability was determined by Cell Counting Kit-8 (CCK-8, Dojindo, Kumamoto, Japan) as described previously (31). Cell viability was calculated relative to the DMSO control. Cell cycle profile was analyzed by flow cytometry as described previously (32).

MCF7 = MCF7 cell growth inhibition; assay type: cell-based, human
Method: as §1, §2

MDA-MB-231 [1] = assay: Cell cycle distribution by flow cytometry, MDA-MB-231; assay type: cell-based, human; conditions: 10 μM, 48 hours
Method: as §2

[2] = Pharmacokinetics (serum levels) after IP dosing; assay type: in vivo, mice; conditions: 1.16 mg/kg
Description: This may be due to slow metabolism of the compound. […] Thus, in some embodiments, the compositions of the invention can be administered is a dosage regimen that is highly convenient, e.g., once weekly instead of daily. The compositions of the present invention can be administered every 1, 2, 3, 4, 5, 6, or 7 days, or may be administered otherwise.

[3] = system: Rab5b geranylgeranylation in NIH3T3 cells; assay: Rab5b immunoblot and subcellular fractionation in NIH3T3 cells; assay type: cell-based; conditions: 48 hours
Method: The inhibition of Rab geranylgeranylation in cells (FIG. 43) was examined according to (29). Briefly, whole cell lysates were subjected to 15% SDS-PAGE containing 4M urea followed by immunoblotting with the antibody against Rab5b (Santa Cruz: sc-598) or actin. Subcellular fractionations (FIG. 44) were performed as described by Gomes et al. (30). Briefly, cells were treated with P49-F6 for 48 hours. After osmotic lysis, cell debris were removed by centrifugation at 500×g for 10 min, and the supernatant was subjected to ultracentrifugation at 100,000×g for 60 min. The supernatant of ultracentrifugation was collected as a soluble fraction. The pellet was collected as a membrane fraction. These fractions were subjected to electrophoresis on 10% SDS-PAGE gels followed by immunoblotting with the antibody against Rab5b. RhoGDI (Santa Cruz: sc-360) and Na^+/K^+ ATPase (Sigma: A276) were used as markers for soluble and membrane fractions, respectively.

MDA-MB-231 [4] = assay: MDA-MB-231 cell growth inhibition; assay type: cell-based, human; conditions: Homo sapiens, MDA-MB-231, 72 h; 3 days, CCK-8, vs DMSO; read-out: IC50, MDA-MB-231 (Breast)
Method: as §1, §2

Jurkat = assay: Cell cycle distribution by flow cytometry, Jurkat; assay type: cell-based, human; conditions: 10 μM, 48 hours
Method: as §2

Structure (SMILES)	specificity among GGTase-I, FTase and GGTase-II (GGTase-I; FIGS. 20A-20C, varying concentrations)	Ki (GGTase-I; Michaelis-Menten analysis) [µM]	IC50 (GGTase-I; Tables 5, 14) [µM]	mode of GGTase-I inhibition with respect to GGPP (GGTase-I; varying GGPP, fixed RhoA)	mode of GGTase-I inhibition with respect to the protein substrate (RhoA) (GGTase-I; varying RhoA, fixed GGPP)	cell cycle effect in K562 cells (K562 cells)	IC50 (BT474) [µM]	inhibition of proliferation of MCF-7 (MCF7; 72 hours, FIG. 37A)	IC50 (MCF7; Homo sapiens, MCF7, 144 h, 6 days, CCK-8, vs DMSO, read-out: IC50, MCF-7 (Breast)) [µM]	Percent G2/M, MDA-MB-231 (MDA-MB-231 [1]; DMSO 7.74) [%]	Percent G0/G1, MDA-MB-231 (MDA-MB-231 [1]; DMSO 73.78) [%]	Clearance ([2]; IP) [mL/h]	Cmax ([2]; mouse, serum, ip)	half-life ([2]; mouse, serum, ip) [h]	AUC(0-t) ([2]; mouse, serum, ip, read-out: AUC0-4 h) [ng·h/mL]	IC50 (GGTase-I; Tables 3, 5, 7) [µM]	inhibition of Rab5b geranylgeranylation (slow migrating unmodified Rab5b band) [3]	IC50 (MDA-MB-231 [4]) [µM]	Percent G2/M, Jurkat (Jurkat; DMSO 11.80) [%]	Percent G0/G1, Jurkat (Jurkat; DMSO 46.92) [%]
Cc1ccccc1S(=O)(=O)N1[C@@H](c2cccc(Cl)c2)C(C(=O)O)=CC[C@H]1c1ccc(Cl)cc1 [P3-E5]	specifically inhibit GGTase I	0.187 ± 0.013	0.313	do not compete with GGPP; also recorded: uncompetitive inhibitors	compete with a substrate protein; also recorded: competitive inhibitors	induces G1 arrest	–	–	–	–	–	–	–	–	–	–	–	–	–	–
Cc1ccccc1S(=O)(=O)N1C(c2ccc(Cl)cc2)C(C(=O)NC(Cc2ccccc2)C(N)=O)=CC1C(C)(C)C (centres unmarked) [P61-A6]	–	–	–	–	–	–	8.5	dose-dependent inhibition of proliferation	4.5	5.15	85.16	1.04	13000 ng/mL and 22.4 µM	16.9	22200	1	did not inhibit geranylgeranylation of Rab5b	8.7	11.60	57.87

From US8815935B2, “Inhibitors of protein prenyltransferases” (The Regents of the University of California, priority 2008, dated 2014)
